Assay results reported in PMC7484762 (2020).

Columns and labels:
[1] = system: 79-nt RNA ending at A79 (RNA, riboswitch) UAUCAGUUAUAUGACUGACGGAACGUGGAAUUAACCACAUGAAGUAUAACGAUGACAAUGCCGACCGUCUGGGCGAACA; assay: ITC; settings: 150 mM KCl, 10 mM MgCl2; 50 mM HEPES-KOH pH 7.4, 37 °C; apparent; exact value in Supplementary Figure 1b
[2] = system: 92-94A (ligated, with 3' tether, annealed to biotin-DNA-Cy5) (DNA:RNA, riboswitch) UAUCAGUUAUAUGACUGACGGAACGUGGAAUUAACCACAUGAAGUAUAACGAUGACAAUGCCGACCGUCUGGGCGAACAAGCCUAGAUUGUAAAUUCAUUAGCGGUAUUCCGGAAUUGCCGUAAUCGCG/CGCGATTACGGCAATTCCGGAATACCGCTAATG; assay: smFRET; settings: 150 mM KCl, 10 mM MgCl2; 50 mM HEPES-KOH pH 7.4; thermally refolded; partially responsive
[3] = system: 81-83, 92-94A (ligated, with 3' tether, annealed to biotin-DNA-Cy5) (DNA:RNA, riboswitch) UAUCAGUUAUAUGACUGACGGAACGUGGAAUUAACCACAUGAAGUAUAACGAUGACAAUGCCGACCGUCUGGGCGAACAAAAAUAGAUUGUAAAUUCAUUAGCGGUAUUCCGGAAUUGCCGUAAUCGCG/CGCGATTACGGCAATTCCGGAATACCGCTAATG; assay: smFRET; settings: 150 mM KCl, 10 mM MgCl2; 50 mM HEPES-KOH pH 7.4; thermally refolded; majority binds
[4] = system: Δterm (ligated F. ulcerans ZTP aptamer with 3' tether, annealed to biotin-DNA-Cy5) (DNA:RNA, riboswitch) UAUCAGUUAUAUGACUGACGGAACGUGGAAUUAACCACAUGAAGUAUAACGAUGACAAUGCCGACCGUCUGGGCGUUCAUUAGCGGUAUUCCGGAAUUGCCGUAAUCGCG/CGCGATTACGGCAATTCCGGAATACCGCTAATG; assay: smFRET titration (TIRF), Langmuir fit; settings: 150 mM KCl, 10 mM MgCl2, 50 mM HEPES-KOH pH 7.4, thermally refolded, Pmax 71%, 1.5 μM after vectorial folding
[5] = system: WT (ligated F. ulcerans ZTP riboswitch with 3' tether, annealed to biotin-DNA-Cy5) (DNA:RNA, riboswitch) UAUCAGUUAUAUGACUGACGGAACGUGGAAUUAACCACAUGAAGUAUAACGAUGACAAUGCCGACCGUCUGGGCGAACAAGCCUAGAUUGUCGGUUCAUUAGCGGUAUUCCGGAAUUGCCGUAAUCGCG/CGCGATTACGGCAATTCCGGAATACCGCTAATG; assay: smFRET; settings: 150 mM KCl, 10 mM MgCl2; 50 mM HEPES-KOH pH 7.4; thermally refolded with 1 mM ZMP, ~10% bound; vectorially folded 38%
[6] = system: 81-83A (ligated, with 3' tether, annealed to biotin-DNA-Cy5) (DNA:RNA, riboswitch) UAUCAGUUAUAUGACUGACGGAACGUGGAAUUAACCACAUGAAGUAUAACGAUGACAAUGCCGACCGUCUGGGCGAACAAAAAUAGAUUGUCGGUUCAUUAGCGGUAUUCCGGAAUUGCCGUAAUCGCG/CGCGATTACGGCAATTCCGGAATACCGCTAATG; assay: smFRET after vectorial folding (Rep-X); settings: 150 mM KCl, 10 mM MgCl2; 50 mM HEPES pH 7.4; larger bound fraction than WT

Kd [1]: ~ 1 μM
binding [2]: weak
binding [3]: yes
binding [6]: yes
Compound: NC(=O)c1ncn([C@@H]2O[C@H](COP(=O)(O)O)[C@@H](O)[C@H]2O)c1N
apparent KD [4]: 1300 nM
binding [5]: weak
